{
  "source": "patent US6166025A",
  "about": "“Pharmaceutical compositions containing eletriptran hemisulphate and caffeine” (Pfizer Inc., priority 1997, dated 2000)",
  "key": {"Aqueous solubility": {"assay": "Aqueous solubility", "format": "physicochemical", "settings": "water, 4° C."}, "[1]": {"assay": "Stability of a solution in pH 8 aqueous buffer on standing for 12 weeks at 50° C.", "format": "physicochemical"}, "[2]": {"settings": "aqueous solution; Higuchi et al. 1955; cited from earlier work"}},
  "data": [
    {"smiles": "CN1CCC[C@@H]1Cc1c[nH]c2ccc(CCS(=O)(=O)c3ccccc3)cc12", "note": "[Eletriptan hemisulphate]", "values": [
      {"measurement": "solubility", "setting": "Aqueous solubility", "value": "> 100", "unit": "mg/mL"},
      {"measurement": "number of degradation products detected by H.P.L.C.", "setting": "[1]; H.P.L.C. techniques", "value": "At least five"},
      {"measurement": "hydrolytic stability", "setting": "[1]; aqueous solutions", "value": "hydrolytically unstable"},
      {"measurement": "remaining at 2016 h", "setting": "[1]; pH 8 aqueous buffer, 12 weeks at 50° C., read-out: eletriptan left (relative to the original weight)", "value": "< 85", "unit": "%"}
    ]},
    {"smiles": "CCOC(=O)c1ccc(N)cc1", "note": "[benzocaine]", "values": [
      {"measurement": "effect of caffeine on hydrolytic degradation", "setting": "[2]", "value": "substantially reduces the hydrolytic degradation"}
    ]}
  ]
}
